Data: PubChem BioAssay (NCI)
Where “and” joins values, the source holds several entries; their conditions need not be identical. Equal entries are not always repeated.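 All cell lines were grown in 96-well plates and treated with compound for 48 hours. GI50 marks 50% less growth. TGI marks complete inhibition of growth.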

Tests used:
Experiment in all cases: growth of human tumour cells (NCI), 48 h
HCT-116 colon = system: HCT-116 colon
HL-60(TB) leukemia = system: HL-60(TB) leukemia
HS 578T breast = system: HS 578T breast
IGROV1 ovarian = system: IGROV1 ovarian
LOX IMVI melanoma = system: LOX IMVI melanoma
M14 melanoma = system: M14 melanoma
MDA-MB-231 breast = system: MDA-MB-231 breast
UACC-257 melanoma = system: UACC-257 melanoma

Structure (SMILES)	GI50 (HCT-116 colon)	TGI (HCT-116 colon)	GI50 (HL-60(TB) leukemia)	TGI (HL-60(TB) leukemia)	GI50 (HS 578T breast)	TGI (HS 578T breast)	GI50 (IGROV1 ovarian)	TGI (IGROV1 ovarian)	GI50 (LOX IMVI melanoma)	TGI (LOX IMVI melanoma)	GI50 (M14 melanoma)	TGI (M14 melanoma)	GI50 (MDA-MB-231 breast)	TGI (MDA-MB-231 breast)	GI50 (UACC-257 melanoma)	TGI (UACC-257 melanoma)
C[C@@H]1CC[C@@H]2[C@@H]1[C@H](OC(=O)/C=C/C1CCCCC1)[C@]1(C3CCCCC3)C[C@@H](OC(=O)CO)[C@@]2(C)O1	13.5 µM	26.6 µM	16.3 µM	35.3 µM	0.0162 µM	0.0556 µM	14.4 µM	29.8 µM	14.3 µM	27.1 µM	14.8 µM	31.6 µM	15.4 µM	29.6 µM	15.8 µM	29.6 µM
c1ccc2c(N=NSc3ncnc4nc[nH]c34)c3ccccc3nc2c1	0.53 µM	11.6 µM	3.12 µM	6.96 µM	2.6 µM	7.21 µM	2.73 µM	8.6 µM	0.643 µM	7.14 µM	1.7 µM	4.12 µM	1.24 µM	6.11 µM	0.662 µM	6.56 µM
N#C/C(=C\c1ccc[nH]1)c1cc(-c2ccc(Cl)cc2)nn1-c1ccccc1	3.28 µM	12.8 µM	4.36 µM	29.3 µM	2.17 µM	14.1 µM	14 µM	> 95.4 µM	4.9 µM	16.8 µM	4.09 µM	14.8 µM	5.78 µM	33 µM	10.9 µM	35.8 µM
Nc1nc(N)c2c(ccc3c2ccn3Cc2cccc([N+](=O)[O-])c2)n1	0.00591 µM	1.84 µM	0.00918 µM and 0.0476 µM	2.5 µM	1.61 µM	3.38 µM	0.00295 µM	0.0255 µM	0.00831 µM	1.47 µM	0.00865 µM	1.77 µM	1.27 µM	2.64 µM	1.07 µM	2.47 µM
O=C(Nc1ccc(Cl)c(Cl)c1)c1ccc(NC2=C(Cl)C(=O)N(Cc3ccccc3)C2=O)cc1	1.94 µM	4.25 µM	2.82 µM	7.68 µM	5.37 µM	27 µM	2.71 µM	8.14 µM	–	–	17.1 µM	32.9 µM	3.06 µM	9.41 µM	3.67 µM	11.9 µM
O=C1C2=C(C(=O)c3ccccc31)C(O)(S(=O)(=O)O)C(O)(S(=O)(=O)O)C1N=CC=CC21 (stereo not given)	3.34 µM and 2.81 µM	20.1 µM and 12.7 µM	7.83 µM and 4.13 µM	> 100 µM and 20.6 µM	4.93 µM and 3.71 µM	75.7 µM and 29.8 µM	2.19 µM	9.5 µM	3.1 µM and 2.84 µM	54.9 µM and 20.3 µM	4.83 µM and 3.2 µM	32.1 µM and 29.4 µM	14.5 µM and 4.51 µM	> 100 µM and 46.6 µM	10.8 µM	47.7 µM
COC(=O)[C@]1(C)CCC[C@@]2(C)C3=C(CC[C@H]12)C[C@@H](CC(OC(C)=O)OC(C)=O)[C@@H](C)C3	8.21 µM	18.9 µM	14.4 µM	> 50 µM	10.9 µM	23 µM	14.5 µM	> 37.1 µM	> 50 µM	> 50 µM	11.1 µM	20 µM	8.81 µM	19.2 µM	10.1 µM	19.7 µM
O=C1/C=C/[C@@H](O)[C@@H]2C[C@@H](O)C[C@H]2/C=C/CCC[C@H](CCO)O1	0.215 µM	0.454 µM	0.315 µM	1.16 µM	0.0519 µM	> 100 µM	0.382 µM	> 100 µM	0.157 µM	0.377 µM	0.155 µM	> 100 µM	0.182 µM	0.391 µM	0.0609 µM	> 100 µM
O=C(Nc1nc2c(C(F)(F)F)cccc2s1)c1cc(Cl)ccc1O	0.352 µM	11.2 µM	–	–	0.268 µM	26.3 µM	0.511 µM	35 µM	0.32 µM	10.8 µM	0.35 µM	22.8 µM	0.27 µM	0.952 µM	0.273 µM	0.821 µM
CN1C(=O)N(C)C2C1NC(=S)N2/N=C/C=C/c1ccccc1[N+](=O)[O-] (stereo not given)	0.634 µM	> 100 µM	0.414 µM	2.8 µM	0.646 µM	> 100 µM	2.48 µM	> 100 µM	0.87 µM	> 100 µM	0.92 µM	> 100 µM	5.02 µM	> 100 µM	> 100 µM	> 100 µM
COc1cc(OC)c(/C=C/C(=O)c2c(OC)cc(OC)cc2OC)c(OC)c1	0.6 µM	10.2 µM	0.637 µM	9.44 µM	1.39 µM	6.37 µM	0.577 µM	25.2 µM	0.782 µM	4.54 µM	0.38 µM	1.78 µM	1.51 µM	31.1 µM	3.58 µM	> 100 µM
CCC(=O)NC1=C(Cl)C(=O)C(NC(=O)CC)=C(Cl)C1=O	6.89 µM	17.3 µM	2.42 µM	> 23.7 µM	26.6 µM	69.7 µM	20.6 µM	37 µM	16.3 µM	31.2 µM	15.2 µM	29.9 µM	16.9 µM	31.2 µM	14.8 µM	28.3 µM
CN(C(=O)C(C)(C)C)c1ccccc1I(=O)=O	–	–	3.81 µM	> 100 µM	> 100 µM	> 100 µM	> 100 µM	> 100 µM	> 100 µM	> 100 µM	–	–	> 100 µM	> 100 µM	> 100 µM	> 100 µM
Cc1ccsc1C(NC(=O)c1ccccc1)c1cc(Cl)c2cccnc2c1O (stereo not given)	0.431 µM	13.1 µM	0.808 µM	5.07 µM	0.379 µM	19.7 µM	0.55 µM	4.77 µM	0.504 µM	2.32 µM	0.892 µM	9.43 µM	0.675 µM	18.7 µM	–	–
C=CCc1c(O)c(C(=O)/C=C/c2ccc(Cl)cc2)c(OC)c2ccoc12	2.74 µM	9 µM	–	–	4.02 µM	42.4 µM	3.46 µM	14.9 µM	1.63 µM	3.08 µM	5.08 µM	29.2 µM	4.3 µM	16.8 µM	2.39 µM	6.62 µM
O=[N+]([O-])c1ccc2c(c1)C(N1CCN(CCO)CC1)Cc1ccc(F)cc1S2 (stereo not given)	–	19.7 µM	–	23.1 µM	–	26.1 µM	–	15.7 µM	–	–	–	–	–	28.2 µM	–	7.01 µM
CCOC(=O)N1CCC(N=C2CSc3nnc(-c4cc(C(F)(F)F)cc(C(F)(F)F)c4)n3N2)CC1	1.9 µM	3.7 µM	–	–	2.31 µM	6.4 µM	1.9 µM	4.79 µM	1.77 µM	3.45 µM	1.95 µM	3.54 µM	1.81 µM	3.56 µM	1.76 µM	3.81 µM
NS(=O)(=O)c1ccc(-n2nc3c(c2-c2cccs2)Cc2ccccc2-3)cc1	7.67 µM	22.7 µM	–	–	16.1 µM	51 µM	2.49 µM	15.5 µM	6.58 µM	19.9 µM	17.3 µM	34.1 µM	17.3 µM	36.2 µM	23.2 µM	44.2 µM
Cc1cc(OCc2ccc(C(F)(F)F)cc2)c2c(c1)C(=O)C=C(NCCN1CCCC1)C2=O	1.85 µM	3.9 µM	1.71 µM	4.08 µM	2.02 µM	5.23 µM	6.69 µM	25.1 µM	1.92 µM	3.55 µM	1.88 µM	3.56 µM	–	–	1.67 µM	3.27 µM
COc1cccc(N2CC(O)=C(c3nc4ccccc4s3)C2=N)c1	0.35 µM	> 47.2 µM	0.26 µM	> 100 µM	0.47 µM	> 44.7 µM	0.277 µM	> 75.6 µM	0.459 µM	> 100 µM	0.35 µM	48.8 µM	0.359 µM	3.42 µM	–	–
CCOC(=O)C1=C(Nc2ccc(OC)cc2)C(N)=NC1=N	2.45 µM	> 100 µM	3.51 µM	> 100 µM	4.17 µM	> 100 µM	5.5 µM	> 100 µM	5.47 µM	> 100 µM	–	–	4.02 µM	> 100 µM	> 100 µM	> 100 µM
CCCCCCC(=O)NC1=C(N2CC2)C(=O)C(NC(=O)CCCCCC)=C(N2CC2)C1=O	–	–	3.17 µM	> 100 µM	3.11 µM	> 100 µM	2.31 µM	> 100 µM	3.03 µM	> 100 µM	2.25 µM	> 100 µM	3.89 µM	> 100 µM	–	–
O=C(Nc1ccc(Br)c2ccccc12)c1ccc2ccccc2c1O	–	11.2 µM	–	88.8 µM	–	13.5 µM	–	16.4 µM	–	–	–	18.3 µM	–	16.8 µM	–	23.9 µM
Cc1[nH]nc(C(F)(F)F)c1Cc1sc2c(c1C(=O)N1C[C@](C)(O)CO1)c(=O)n(C)c(=O)n2C(C)C	> 100 µM	> 100 µM	> 100 µM	> 100 µM	> 100 µM	> 100 µM	–	–	> 100 µM	> 100 µM	> 100 µM	> 100 µM	> 100 µM	> 100 µM	–	–
